Consider three compounds from patent EP4039264A1, “ORAL PEPTIDE ANTAGONISTS OF MULTIPLE CHEMOKINE RECEPTORS FOR REVERSING LOSS OF SYNAPSES AND DENDRITIC SPINES” (Creative Bio-Peptides Inc., priority 2021, dated 2022).

For experiment [1], the target named is T1, CCR5 (Mus musculus, UniProt P51682).
T1 construct: neurons express CCR5 and CXCR4 receptors that control synapse regeneration; endogenous in cells; host or cells: primary E16.5 mouse hippocampal neurons
Description: gp120-induced cofilin-rod formation in cultured hippocampal neurons, CCR5-tropic gp120 (Fig. 2A). The experiment is classed as cell-based. To be noted: cultured mouse hippocampal neurons devoid of immune cells.

The subject of experiment [2] is CCR5. The conditions noted are these: pharmacologic blockade of CCR5 after stroke and traumatic brain injury; cited from earlier work.
The conditions of experiment [3]: HAND phase 2 human trials and brain scans; cited from earlier work.
In another experiment the target is CXCR4 (Mus musculus, UniProt P70658). The conditions noted are these: CXCR4 tropic gp120; cultured mouse hippocampal neurons devoid of immune cells. On the procedure: Aβd/t was isolated from medium of cultured 7PA2 cells, a CHO cell line expressing a form of human APP found in Familial AD. […] Neuronal cultures, fixation, permeabilization, blocking and immunostaining is performed starting with E16.5 mouse hippocampal neurons by common methods in broad use.
Sequence of CXCR4 (P70658 whole entry): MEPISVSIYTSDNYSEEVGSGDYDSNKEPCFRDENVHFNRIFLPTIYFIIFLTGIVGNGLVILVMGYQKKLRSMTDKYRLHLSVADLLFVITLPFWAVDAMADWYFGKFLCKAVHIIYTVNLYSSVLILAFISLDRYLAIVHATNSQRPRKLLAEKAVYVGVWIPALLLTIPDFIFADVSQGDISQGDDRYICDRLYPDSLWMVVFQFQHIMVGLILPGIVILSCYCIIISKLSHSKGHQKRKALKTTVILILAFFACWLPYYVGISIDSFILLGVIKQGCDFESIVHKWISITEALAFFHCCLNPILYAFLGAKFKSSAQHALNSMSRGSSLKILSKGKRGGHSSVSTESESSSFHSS
Images of fixed neurons immunostained for cofilin, growth cones and nuclei captured across the entire coverslip are exported to ImageJ. Macro functions are applied to set local threshold and shape/size segmentation for both the cofilin and growth cone antibodies. Cofilin stained material that is not within neurites is eliminated. Results are reported as rods/nucleus, number of rods per area, rods as percent of total area, or, if NeuN stained or identified morphologically, rods per neuron.

T1 sequence (P51682 whole entry): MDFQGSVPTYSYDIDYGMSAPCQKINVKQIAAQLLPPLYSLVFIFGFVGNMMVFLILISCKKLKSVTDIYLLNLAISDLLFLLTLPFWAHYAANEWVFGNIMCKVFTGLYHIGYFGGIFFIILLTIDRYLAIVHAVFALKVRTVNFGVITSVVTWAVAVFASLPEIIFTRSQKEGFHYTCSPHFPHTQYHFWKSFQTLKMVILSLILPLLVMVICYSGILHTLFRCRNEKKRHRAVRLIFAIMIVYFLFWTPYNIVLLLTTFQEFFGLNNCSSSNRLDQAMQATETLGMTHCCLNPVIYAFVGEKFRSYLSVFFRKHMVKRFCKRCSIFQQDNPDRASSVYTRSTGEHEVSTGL

For `Cc1nnc(C(C)C)n1[C@@H]1C[C@H]2CC[C@@H](C1)N2CC[C@H](NC(=O)C1CCC(F)(F)CC1)c1ccccc1` [maraviroc], at CCR5 [1], the “cofilin-rods formed by neurons treated with gp120” value was “inhibited”. Further, in the experiment on CCR5 [2], the “dendritic spines and neurite cortical projections” value is “preservation of dendritic spines and new patterns of neurite cortical projections”.
As to “[D-Ala1]-Ser-Thr-Thr-Thr-Asn-Tyr-Thr-NH2 [DAPTA]”, in experiment [3], the cognitive deficits result was “able to reverse cognitive deficits”.
Consider `c1cc(CN2CCCNCCNCCCNCC2)ccc1CN1CCCNCCNCCCNCC1` [AMD3100], for which the “cofilin-rods formed by neurons treated with gp120” value at CXCR4 is “inhibited”.
